# Columns and labels:
# [1] = tested on: Caco-2 cells; assay: Paracellular permeability, 4 kDa FITC-dextran flux across Caco-2 monolayer; assay type: cell-based, human; details: 10 μM apical, 24 h
# Experimental: FIG. 5: C12-Asn-GABA crosses the epithelial barrier without modifying epithelial cells physiology. Caco-2 cells were cultivated into transwell chambers. After treatment with C12-Asn-GABA (800 ng) at the apical side, C12-Asn-GABA was quantified inside the cells and both the apical and basolateral compartments by LC-MS/MS (A); data are represented as mean±SEM, n=3 experiments of 3 wells per condition. Extracted ion chromatogram at the exact mass of GABA (104.0702 m/z) with a mass accuracy of 5 ppm of the GABA commercial standard (GABA (Std.) and apical and basolateral compartments after loading or not Caco-2 cells with 800 ng of GABA at the apical site (B); representation of one well, n=3 experiments of 3 wells per condition. Paracellular permeability assessed by the passage of FITC-dextran loaded at the apical side (C) and CXCL8 secretion assessed by ELISA (D) were monitored after treatment of Caco-2 cells at the apical side with C12-Asn-GABA (10 μM); data are represented as mean±SEM, n=3 experiments of 3 wells per condition. […]
# To assess the effect of C12-Asn-GABA on paracellular permeability, transport of dextran 4 kDa FITC across a Caco-2 cell monolayer was investigated. […] In parallel, the release of CXCL8 from Caco-2 cells into the medium, of both apical and basolateral sides of the transwell, was assessed by ELISA. […]
# [2] = tested on: mouse dorsal root ganglia (DRG) neurons; assay: Calcium mobilization in primary DRG sensory neurons, basal (unstimulated); assay type: cell-based; details: 10 μM
# Experimental: Male C57B16 mice (6-8 weeks) were used to produce primary cultures of dorsal root ganglia (DRG) sensory neurons for calcium flux experiments, and to perform studies of colorectal distention and intestinal isotonic contraction. All procedures were approved by Institutional Animal Care Committees (CEEA 122).
# To determine whether C12-Asn-GABA or C12-Asn-BABA is capable of signaling to sensory nerves, calcium mobilization studies were performed on primary cultures of mouse dorsal root ganglia (DRG) neurons. […] The same experiments were thereafter performed in neurons activated by either an agonist of the receptor calcium channel TRPV1 (capsaicin) or by a mix of agonists (histamine, serotonin and bradykinin) for G protein coupled receptors (GPCR) implicated in visceral hypersensitivity. Exposure of neurons to either capsaicin (125 nM) or the mix of GPCR agonists (histamine, bradykinin, serotonin, 10 μM each) induced an increase in calcium flux as shown by the higher % of responding neurons and amplitude of the response (ΔF/F) compared to the vehicle (FIG. 4A, 4B). […] To investigate whether the inhibitory effect of C12-Asn-GABA was associated to the GABA residue, neurons were treated with saclofen (10, 50, and 100 μM), a competitive antagonist of the GABAB receptor. […]
# [3] = tested on: duodenal preparations; assay: Ex vivo duodenal mechanical contraction (isotonic sensors); set-up: species or system mouse; details: 10 μM, vs control and vehicle
# Experimental: FIG. 6: C12-Asn-GABA inhibits capsaicin-induced visceral hypersensitivity without altering Intestinal contraction. Mice received intracolonic administration of C12-Asn-GABA (10 μM; black symbols) or vehicle (40% ethanol; white symbols) and 30 minutes or 4 hours later colon (A) and blood (B) were harvested in order to quantify C12-Asn-GABA by LC-MS/MS. Data are expressed as mean±SEM, n=8 mice per group. […] Mice received intracolonic administration of C12-Asn-GABA (10 μM; black symbols) or vehicle (40% ethanol; white symbols) and 30 minutes or 4 hours later an intracolonic administration of capsaicin (100 μg/mouse; square) or its vehicle (40% ethanol; circle). Fifteen minutes after capsaicin or vehicle treatment, visceromotor response (VMR) to increasing pressures of colorectal distension was performed. Data are expressed as mean±SEM, n=7-8 mice per group. […] Ex vivo measurement of duodenal mechanical contraction frequency (B) and amplitude (C) in response to Krebs-Ringer solution (control; white bar), to DMSO 0.2% (vehicle; gray bar) or to C12-Asn-GABA (10 μM; black bar). Data are expressed as mean±SEM, n=5-6 per group. […]
# IBS patients are characterized by diverse alterations of gut transit: diarrhea, constipation or mixed^1, thus a drug impairing bowel motility could limit its putative use in this pathology. We evaluated whether C12-Asn-GABA was capable of impairing duodenal motility. […]
compound,measurement,setting,value
"CCCCCCCCCCCC(=O)NC(CC(N)=O)C(=O)NCCCC(=O)O (stereo not shown) [C12-Asn-GABA, C11 C(O)-Asn-gamma-aminobutyric acid]",percentage of 4 kDa FITC traversing the cell monolayers (paracellular permeability),[1],not modified
same,calcium mobilization under basal (unstimulated) conditions,[2],does not induce calcium mobilization
same,amplitude of intestinal contractions,[3],nor the amplitude of intestinal contractions
same,frequency of duodenal contractions,[3],impairs neither the frequency of contractions
